The text below walks through data of the NIST ThermoML archive (doi:10.1016/j.jct.2018.07.014).

The term mass density denotes mass per unit of volume.

± gives the expanded uncertainty stated by the source.

For one data set the following is noted: 298.2 K; 101.33 kPa; Liquid; buoyancy.
As for `Cc1cc(C)cc(C)c1` [1,3,5-trimethylbenzene], the mass density is given as 859.7 ± 2.9 kg/m3.

On to `CCCCC(C)=O` [2-hexanone], for which the mass density was found to be 806.37 ± 2.8 kg/m3.

Regarding `CCCOC(C)=O` [propyl ethanoate], the mass density was found to be 881.51 ± 2.9 kg/m3.

Staying with this data set, now noted: 323.2 K; 101.33 kPa; Liquid; buoyancy.
Regarding `Cc1ccccc1O` [2-methylphenol], the mass density was determined as 1018.8 ± 3.2 kg/m3.

`Cc1cccc(O)c1` [3-methylphenol]: the mass density came out at 1009.2 ± 3.1 kg/m3.

As to `Cc1ccc(O)cc1` [4-methylphenol], the mass density is 1011.3 ± 3.2 kg/m3.
